# Test results published in ChEMBL document CHEMBL4390671, “FragLites-Minimal, Halogenated Fragments Displaying Pharmacophore Doublets. An Efficient Approach to Druggability Assessment and Hit Generation” (J Med Chem, 2019).
# Active and inactive are the calls of the source. No cut-off for these calls is given here.
# How the values were obtained:
# [1] = target: T1, Cyclin-dependent kinase 2 (Homo sapiens, UniProt P24941); assay: Binding affinity to full-length human CDK2 expressed in Escherichia coli BL21 (DE3) pLysS cells at 5 mM by isothermal titration calorimetry
# [2] = target: T1, Cyclin-dependent kinase 2; assay: Binding affinity to full-length human CDK2 expressed in Escherichia coli BL21 (DE3) pLysS cells by isothermal titration calorimetry
# [3] = target: T1, Cyclin-dependent kinase 2; assay: Binding affinity to full-length human CDK2 expressed in Escherichia coli BL21 (DE3) pLysS cells at 1 to 5 mM by isothermal titration calorimetry
SMILES,Activity [1],Kd [2] [µM],also measured
Nc1nc(-c2cccc(CC(=O)O)c2)c2nc[nH]c2n1,,50,Activity [2]: Dose-dependent effect
Nc1nc(Oc2cccc(CC(=O)O)c2)c2nc[nH]c2n1,,,Activity [3]: inactive
Nc1nc(I)c2nc[nH]c2n1,,350,

# The next lines start with results.
Activity [1],Kd [2] [µM],SMILES,also measured
inactive,,Brc1cn[nH]c1,
inactive,,NS(=O)(=O)c1ccc(Br)cc1,
